In the NIST ThermoML archive (doi:10.1021/acs.jced.7b00106):
Numbers after ± are expanded uncertainties.

Conditions: Hot wire method

FC(F)(F)/C=C/Cl [(E)-1-chloro-3,3,3-trifluoroprop-1-ene]
Conditions | thermal conductivity [W/m/K]
343.36 K, 65455 kPa, Liquid | 0.09919 ± 0.0076
343.39 K, 244 kPa, Gas | 0.01403 ± 0.0005
343.41 K, 34281 kPa, Liquid | 0.08798 ± 0.0079
343.43 K, 53923 kPa, Liquid | 0.09546 ± 0.008
343.44 K, 254 kPa, Gas | 0.0143 ± 0.0005
343.54 K, 43743 kPa, Liquid | 0.09133 ± 0.0079
343.62 K, 34264 kPa, Liquid | 0.08757 ± 0.0066
343.63 K, 177 kPa, Gas | 0.01444 ± 0.00051
343.68 K, 26051 kPa, Liquid | 0.08479 ± 0.0055
343.71 K, 368 kPa, Gas | 0.01422 ± 0.0005
343.72 K, 113 kPa, Gas | 0.01433 ± 0.00051
343.77 K, 19020 kPa, Liquid | 0.08131 ± 0.0047
343.82 K, 116 kPa, Gas | 0.01436 ± 0.00051
343.85 K, 65463 kPa, Liquid | 0.09884 ± 0.0065
343.89 K, 252 kPa, Gas | 0.01433 ± 0.00051
343.9 K, 26047 kPa, Liquid | 0.08436 ± 0.0032
343.93 K, 12786 kPa, Liquid | 0.07777 ± 0.0024
343.93 K, 53925 kPa, Liquid | 0.09489 ± 0.0078
343.97 K, 19023 kPa, Liquid | 0.08066 ± 0.0046
344.06 K, 43740 kPa, Liquid | 0.09102 ± 0.0049
344.06 K, 65472 kPa, Liquid | 0.09859 ± 0.0066
344.08 K, 176 kPa, Gas | 0.01441 ± 0.00051
344.15 K, 365 kPa, Gas | 0.0142 ± 0.0005
344.15 K, 53918 kPa, Liquid | 0.09481 ± 0.0079
344.17 K, 12778 kPa, Liquid | 0.07722 ± 0.0032
344.2 K, 113 kPa, Gas | 0.01446 ± 0.00051
344.28 K, 117 kPa, Gas | 0.01435 ± 0.00051
344.3 K, 43734 kPa, Liquid | 0.09086 ± 0.005
344.35 K, 250 kPa, Gas | 0.01435 ± 0.00051
344.48 K, 465 kPa, Gas | 0.01396 ± 0.00049
344.56 K, 175 kPa, Gas | 0.01444 ± 0.00051
344.7 K, 114 kPa, Gas | 0.01426 ± 0.0005
344.79 K, 119 kPa, Gas | 0.01436 ± 0.00051
344.84 K, 248 kPa, Gas | 0.01433 ± 0.00051
344.84 K, 463 kPa, Gas | 0.01404 ± 0.00058
344.95 K, 465 kPa, Gas | 0.01434 ± 0.00054
345.08 K, 174 kPa, Gas | 0.01445 ± 0.00051
345.19 K, 360 kPa, Gas | 0.01419 ± 0.0005
345.23 K, 114 kPa, Gas | 0.01452 ± 0.00051
345.31 K, 120 kPa, Gas | 0.01441 ± 0.00051
345.34 K, 463 kPa, Gas | 0.01431 ± 0.00052
345.37 K, 246 kPa, Gas | 0.01436 ± 0.00051
345.44 K, 465 kPa, Gas | 0.0143 ± 0.0005
345.7 K, 358 kPa, Gas | 0.01431 ± 0.0005
345.9 K, 245 kPa, Gas | 0.01451 ± 0.00051
361.58 K, 586 kPa, Fluid (supercritical or subcritical phases) | 0.01605 ± 0.0014
361.67 K, 483 kPa, Fluid (supercritical or subcritical phases) | 0.01602 ± 0.0013
361.68 K, 45282 kPa, Liquid | 0.08799 ± 0.0024
361.69 K, 33938 kPa, Liquid | 0.0832 ± 0.0012
361.69 K, 33954 kPa, Liquid | 0.08326 ± 0.0029
361.7 K, 45281 kPa, Liquid | 0.08796 ± 0.0018
361.73 K, 23489 kPa, Liquid | 0.07844 ± 0.0025
361.74 K, 23503 kPa, Liquid | 0.07846 ± 0.0029
361.77 K, 371 kPa, Fluid (supercritical or subcritical phases) | 0.01613 ± 0.0014
361.79 K, 26408 kPa, Liquid | 0.07982 ± 0.0022
361.8 K, 26407 kPa, Liquid | 0.07977 ± 0.0018
361.83 K, 39898 kPa, Liquid | 0.0857 ± 0.0085
361.83 K, 39907 kPa, Liquid | 0.0857 ± 0.0086
361.88 K, 33923 kPa, Liquid | 0.08317 ± 0.0014
361.89 K, 33938 kPa, Liquid | 0.0832 ± 0.0017
361.92 K, 588 kPa, Fluid (supercritical or subcritical phases) | 0.01611 ± 0.0016
361.93 K, 45278 kPa, Liquid | 0.08791 ± 0.0016
361.94 K, 45270 kPa, Liquid | 0.08806 ± 0.0016
361.98 K, 23477 kPa, Liquid | 0.07836 ± 0.00088
361.98 K, 23492 kPa, Liquid | 0.07838 ± 0.0018
362.01 K, 484 kPa, Fluid (supercritical or subcritical phases) | 0.01607 ± 0.002
362.05 K, 26376 kPa, Liquid | 0.07972 ± 0.0009
362.05 K, 26398 kPa, Liquid | 0.07971 ± 0.0012
362.05 K, 39862 kPa, Liquid | 0.08563 ± 0.0016
362.08 K, 39906 kPa, Liquid | 0.08546 ± 0.0021
362.14 K, 33914 kPa, Liquid | 0.08314 ± 0.00095
362.14 K, 33942 kPa, Liquid | 0.08313 ± 0.0019
362.16 K, 19344 kPa, Liquid | 0.07625 ± 0.00088
362.18 K, 23467 kPa, Liquid | 0.07857 ± 0.0022
362.19 K, 8420 kPa, Liquid | 0.06998 ± 0.0011
362.2 K, 3010 kPa, Liquid | 0.06622 ± 0.00079
362.2 K, 8440 kPa, Liquid | 0.07 ± 0.00083
362.2 K, 45249 kPa, Liquid | 0.0878 ± 0.004
362.2 K, 45283 kPa, Liquid | 0.08787 ± 0.0021
362.21 K, 3023 kPa, Liquid | 0.06627 ± 0.00076
362.21 K, 23488 kPa, Liquid | 0.07836 ± 0.0013
362.23 K, 790 kPa, Liquid | 0.06431 ± 0.0035
362.23 K, 805 kPa, Liquid | 0.06452 ± 0.0023
362.24 K, 5520 kPa, Liquid | 0.06804 ± 0.00086
362.24 K, 5538 kPa, Liquid | 0.06811 ± 0.001
362.26 K, 19400 kPa, Liquid | 0.07636 ± 0.00085
362.27 K, 587 kPa, Fluid (supercritical or subcritical phases) | 0.01619 ± 0.002
362.3 K, 11679 kPa, Liquid | 0.07201 ± 0.00085
362.3 K, 11690 kPa, Liquid | 0.07201 ± 0.00091
362.31 K, 39856 kPa, Liquid | 0.08563 ± 0.0017
362.31 K, 39891 kPa, Liquid | 0.08561 ± 0.0014
362.32 K, 26374 kPa, Liquid | 0.07971 ± 0.0011
362.32 K, 26405 kPa, Liquid | 0.07971 ± 0.0011
362.37 K, 484 kPa, Fluid (supercritical or subcritical phases) | 0.0162 ± 0.0018
362.41 K, 33911 kPa, Liquid | 0.0832 ± 0.0013
362.42 K, 8419 kPa, Liquid | 0.06999 ± 0.0017
362.42 K, 33938 kPa, Liquid | 0.08309 ± 0.001
362.44 K, 8433 kPa, Liquid | 0.06997 ± 0.0017
362.46 K, 3010 kPa, Liquid | 0.0662 ± 0.0012
362.47 K, 3011 kPa, Liquid | 0.0662 ± 0.0012
362.47 K, 15419 kPa, Liquid | 0.0741 ± 0.00083
362.47 K, 23460 kPa, Liquid | 0.07827 ± 0.0058
362.48 K, 5516 kPa, Liquid | 0.06801 ± 0.0016
362.48 K, 15443 kPa, Liquid | 0.07414 ± 0.001
362.48 K, 23476 kPa, Liquid | 0.07831 ± 0.004
362.48 K, 45268 kPa, Liquid | 0.08777 ± 0.0021
362.48 K, 45271 kPa, Liquid | 0.08777 ± 0.0021
362.49 K, 790 kPa, Liquid | 0.06443 ± 0.0012
362.49 K, 5526 kPa, Liquid | 0.06804 ± 0.0011
362.5 K, 790 kPa, Liquid | 0.06446 ± 0.0013
362.51 K, 370 kPa, Fluid (supercritical or subcritical phases) | 0.01626 ± 0.0014
362.54 K, 11661 kPa, Liquid | 0.0719 ± 0.0019
362.55 K, 11680 kPa, Liquid | 0.07196 ± 0.0015
362.57 K, 39863 kPa, Liquid | 0.08553 ± 0.0019
362.58 K, 39864 kPa, Liquid | 0.08552 ± 0.0019
362.6 K, 26399 kPa, Liquid | 0.07968 ± 0.0016
362.6 K, 26401 kPa, Liquid | 0.07967 ± 0.0016
362.61 K, 19433 kPa, Liquid | 0.07636 ± 0.0012
362.65 K, 15399 kPa, Liquid | 0.07408 ± 0.001
362.66 K, 587 kPa, Fluid (supercritical or subcritical phases) | 0.0163 ± 0.0022
362.66 K, 15425 kPa, Liquid | 0.07408 ± 0.00098
362.67 K, 8422 kPa, Liquid | 0.06992 ± 0.0013
362.68 K, 8413 kPa, Liquid | 0.06988 ± 0.0018
362.69 K, 33907 kPa, Liquid | 0.08302 ± 0.0059
362.69 K, 33929 kPa, Liquid | 0.08306 ± 0.0032
362.7 K, 19433 kPa, Liquid | 0.07633 ± 0.0015
362.74 K, 5502 kPa, Liquid | 0.06792 ± 0.0012
362.75 K, 3008 kPa, Liquid | 0.06615 ± 0.00098
362.75 K, 3026 kPa, Liquid | 0.06618 ± 0.00099
362.75 K, 5530 kPa, Liquid | 0.06798 ± 0.00077
362.75 K, 23458 kPa, Liquid | 0.07811 ± 0.0018
362.75 K, 23492 kPa, Liquid | 0.07827 ± 0.002
362.75 K, 45227 kPa, Liquid | 0.08785 ± 0.0013
362.76 K, 484 kPa, Fluid (supercritical or subcritical phases) | 0.01624 ± 0.0016
362.76 K, 45255 kPa, Liquid | 0.08771 ± 0.0017
362.77 K, 783 kPa, Liquid | 0.06438 ± 0.0012
362.77 K, 802 kPa, Liquid | 0.06442 ± 0.00097
362.8 K, 11664 kPa, Liquid | 0.07188 ± 0.0012
362.81 K, 11670 kPa, Liquid | 0.07191 ± 0.00093
362.83 K, 15386 kPa, Liquid | 0.07403 ± 0.0011
362.86 K, 39872 kPa, Liquid | 0.08551 ± 0.00099
362.87 K, 15400 kPa, Liquid | 0.07403 ± 0.0015
362.87 K, 39835 kPa, Liquid | 0.08548 ± 0.0013
362.89 K, 367 kPa, Fluid (supercritical or subcritical phases) | 0.01631 ± 0.00069
362.89 K, 26375 kPa, Liquid | 0.07958 ± 0.0024
